From the NIST ThermoML archive (doi:10.1016/j.jct.2017.12.023)

Test: xn = mol fraction of the nth substance listed
Details: 100 kPa, Liquid; for viscosity: Concentric cylinders viscometry; for mass density: Vibrating tube method

CCOS(=O)(=O)[O-].CCn1cc[n+](C)c1 [1-ethyl-3-methylimidazolium ethyl sulfate] + CCCCCCO
Details | mass density [kg/m3] | viscosity [mPa·s]
288.15 K, x1 = 0.1016 | 883.62 | 9.353
288.15 K, x1 = 0.2016 | 938.59 | 13.3
288.15 K, x1 = 0.3005 | 988.2 | 18.78
288.15 K, x1 = 0.3989 | 1033.38 | 26.42
288.15 K, x1 = 0.4975 | 1075.01 | 36.71
288.15 K, x1 = 0.5956 | 1113.22 | 50.2
288.15 K, x1 = 0.6647 | 1138.48 | 61.57
288.15 K, x1 = 0.7947 | 1182.52 | 90.12
288.15 K, x1 = 0.897 | 1214.13 | 117.32
288.15 K, x1 = 1 | 1243.07 | 155.55
293.15 K, x1 = 0.1016 | 880.04 | 7.885
293.15 K, x1 = 0.2016 | 935.01 | 11.15
293.15 K, x1 = 0.3005 | 984.62 | 15.65
293.15 K, x1 = 0.3989 | 1029.83 | 21.79
293.15 K, x1 = 0.4975 | 1071.48 | 29.93
293.15 K, x1 = 0.5956 | 1109.72 | 40.24
293.15 K, x1 = 0.6647 | 1135 | 48.86
293.15 K, x1 = 0.7947 | 1179.07 | 69.76
293.15 K, x1 = 0.897 | 1210.7 | 90.21
293.15 K, x1 = 1 | 1239.66 | 117.88
298.15 K, x1 = 0.1016 | 876.47 | 6.825
298.15 K, x1 = 0.2016 | 931.44 | 9.64
298.15 K, x1 = 0.3005 | 981.06 | 13.44
298.15 K, x1 = 0.3989 | 1026.28 | 18.54
298.15 K, x1 = 0.4975 | 1067.96 | 25.04
298.15 K, x1 = 0.5956 | 1106.23 | 33.31
298.15 K, x1 = 0.6647 | 1131.53 | 40.06
298.15 K, x1 = 0.7947 | 1175.63 | 55.99
298.15 K, x1 = 0.897 | 1207.28 | 71.04
298.15 K, x1 = 1 | 1236.27 | 91.26
303.15 K, x1 = 0.1016 | 872.88 | 5.918
303.15 K, x1 = 0.2016 | 927.87 | 8.313
303.15 K, x1 = 0.3005 | 977.51 | 11.56
303.15 K, x1 = 0.3989 | 1022.76 | 15.8
303.15 K, x1 = 0.4975 | 1064.47 | 21.17
303.15 K, x1 = 0.5956 | 1102.76 | 27.85
303.15 K, x1 = 0.6647 | 1128.08 | 33.14
303.15 K, x1 = 0.7947 | 1172.21 | 45.6
303.15 K, x1 = 0.897 | 1203.87 | 57.05
303.15 K, x1 = 1 | 1232.87 | 72.1
308.15 K, x1 = 0.1016 | 869.3 | 5.153
308.15 K, x1 = 0.2016 | 924.31 | 7.242
308.15 K, x1 = 0.3005 | 973.98 | 10.01
308.15 K, x1 = 0.3989 | 1019.25 | 13.6
308.15 K, x1 = 0.4975 | 1060.99 | 18.02
308.15 K, x1 = 0.5956 | 1099.3 | 23.46
308.15 K, x1 = 0.6647 | 1124.65 | 27.77
308.15 K, x1 = 0.7947 | 1168.81 | 37.67
308.15 K, x1 = 0.897 | 1200.48 | 46.51
308.15 K, x1 = 1 | 1229.49 | 57.98
313.15 K, x1 = 0.1016 | 865.72 | 4.475
313.15 K, x1 = 0.2016 | 920.76 | 6.296
313.15 K, x1 = 0.3005 | 970.44 | 8.67
313.15 K, x1 = 0.3989 | 1015.75 | 11.7
313.15 K, x1 = 0.4975 | 1057.52 | 15.4
313.15 K, x1 = 0.5956 | 1095.87 | 19.84
313.15 K, x1 = 0.6647 | 1121.24 | 23.34
313.15 K, x1 = 0.7947 | 1165.42 | 31.23
313.15 K, x1 = 0.897 | 1197.11 | 38.33
313.15 K, x1 = 1 | 1226.13 | 47.26
318.15 K, x1 = 0.1016 | 862.11 | 3.975
318.15 K, x1 = 0.2016 | 917.2 | 5.593
318.15 K, x1 = 0.3005 | 966.93 | 7.683
318.15 K, x1 = 0.3989 | 1012.26 | 10.3
318.15 K, x1 = 0.4975 | 1054.07 | 13.44
318.15 K, x1 = 0.5956 | 1092.45 | 17.17
318.15 K, x1 = 0.6647 | 1117.84 | 20.06
318.15 K, x1 = 0.7947 | 1162.05 | 26.51
318.15 K, x1 = 0.897 | 1193.76 | 32.18
318.15 K, x1 = 1 | 1222.79 | 39.25
323.15 K, x1 = 0.1016 | 858.5 | 3.566
323.15 K, x1 = 0.2016 | 913.65 | 4.959
323.15 K, x1 = 0.3005 | 963.42 | 6.841
323.15 K, x1 = 0.3989 | 1008.79 | 9.127
323.15 K, x1 = 0.4975 | 1050.64 | 11.85
323.15 K, x1 = 0.5956 | 1089.05 | 14.98
323.15 K, x1 = 0.6647 | 1114.46 | 17.41
323.15 K, x1 = 0.7947 | 1158.7 | 22.64
323.15 K, x1 = 0.897 | 1190.42 | 27.41
323.15 K, x1 = 1 | 1219.46 | 32.94
